Columns and labels:
LD50 in a mouse = conditions: in vivo, read-out: dosage reaching the LD50 limit
Source text: The upper limit of the amount of the composition of the present invention will depend upon how the extract is made and may be determined by the levels at which toxicity or irritation becomes an issue. Thus, for surface cleansers, very high concentrations can be employed, whereas for skin cleansers, oral care or other products used for direct contact with humans or animals, lower concentrations will be desirable to avoid irritation or toxicity issues. […] Use of the term, “safe amount” herein refers to concentrations which are sufficiently below the above-mentioned amounts to avoid toxic effects in humans or animals.

[1] = system: a variety of common bacteria; experiment: bactericidal amounts for common bacteria; type: cell-based
Source text: The composition of the present invention is preferably used in amounts that deliver at least about 2 ppm of anemonin, protoanemonin, diterpenoid alkaloids, or combinations thereof, more preferably, at least about 5 ppm of anemonin, protoanemonin, diterpenoid alkaloids, or combinations thereof, and most preferably at least about 15 ppm of anemonin, protoanemonin, diterpenoid alkaloids, or combinations thereof.

Compound	LD50 (LD50 in a mouse) [mg/kg]	amount that is generally bactericidal [1]
O=C1C=CC2(CCC23C=CC(=O)O3)O1 (stereo not drawn) [anemonin]	150	
C=C1C=CC(=O)O1 [protoanemonin]	190	25-200 ppm

From patent US6951833B2, “Anti-microbial compositions” (priority 2002, dated 2005)
